Source: PubChem BioAssay AID2060604 (Molecular Pharmacology Branch, DTP, NCI, 2025)
Several values for one entry are separate records, joined by “and”; a condition that tells them apart may be missing. Equal entries are not always repeated.

Tested on: 379773-124-R-J2-PDC complex spheroids, viability % test/control
Test: Anticancer human tumor 379773-124-R-J2-PDC patient-derived endometrial carcinoma cell line growth inhibition [CLK]
Conditions: for viability, T/C: stronger effect = lower value
How it was run: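 Patient-derived tumor cells grown as complex spheroids with HUVEC endothelial cells and mesenchymal stem cells, treated with drug combinations. Concentrations descend in half-log steps from near clinical Cmax, or from 10 microM if Cmax unknown.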
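Note: compound exposure lasted seven days before the viability readout.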
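Throughout, for viability, T/C: 100% = DMSO vehicle control wells.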

With `C=CC(=O)N1CCN(c2nc(=O)n(-c3c(C)ccnc3C(C)C)c3nc(-c4c(O)cccc4F)c(F)cc23)C(C)C1` (centres undefined) the viability, T/C (compound 0.0316 µM) was 93.1% and 85.7%, the viability, T/C (compound 0.1 µM) was 82.4% and 92.2% and the viability, T/C (compound 0.316 µM) was 88.2% and 84.4%. The viability, T/C (compound 1 µM) was 107% and 91.6%, the viability, T/C (compound 3.16 µM) was 95.7% and 98.6% and the viability, T/C (compound 10 µM) was 92.6% and 94.5%. For the same compound, the IC50 (curve of compound) was over 10000 nM.
In the case of `CCCS(=O)(=O)Nc1ccc(F)c(C(=O)c2c[nH]c3ncc(-c4ccc(Cl)cc4)cc23)c1F` + CNC(=O)c1ccc(Nc2nc(OC3CCCC3)c3c(-c4ccc5nc(C)oc5c4)c[nH]c3n2)c(OC)c1, the IC50 (curve of first compound, second compound 0.0316 µM) is reported as 8070 nM, the IC50 (curve of first compound, second compound 0.1 µM) is reported as under 31.6 nM and the IC50 (curve of first compound, second compound 0.316 µM) is reported as under 31.6 nM. For the same compound, the IC50 (curve of first compound, second compound 1 µM) was under 31.6 nM, the IC50 (curve of first compound, second compound 3.16 µM) was under 31.6 nM and the IC50 (curve of first compound, second compound 10 µM) was under 31.6 nM. It also gave a viability, T/C (second compound 0.0316 µM, first compound 0.0316 µM) of 74.1%, a viability, T/C (second compound 0.0316 µM, first compound 0.1 µM) of 81.7% and a viability, T/C (second compound 0.0316 µM, first compound 0.316 µM) of 82.3%. For the same compound, the viability, T/C (second compound 0.0316 µM, first compound 1 µM) was 91.5%, the viability, T/C (second compound 0.0316 µM, first compound 3.16 µM) was 72.3% and the viability, T/C (second compound 0.0316 µM, first compound 10 µM) was 44.9%. The viability, T/C (second compound 0.1 µM, first compound 0.0316 µM) was 42%, the viability, T/C (second compound 0.1 µM, first compound 0.1 µM) was 39% and the viability, T/C (second compound 0.1 µM, first compound 0.316 µM) was 34.4%. It also gave a viability, T/C (second compound 0.1 µM, first compound 1 µM) of 41.1%, a viability, T/C (second compound 0.1 µM, first compound 3.16 µM) of 38% and a viability, T/C (second compound 0.1 µM, first compound 10 µM) of 17.4%. It also gave a viability, T/C (second compound 0.316 µM, first compound 0.0316 µM) of 39.5%, a viability, T/C (second compound 0.316 µM, first compound 0.1 µM) of 30.1% and a viability, T/C (second compound 0.316 µM, first compound 0.316 µM) of 39%. For the same compound, the viability, T/C (second compound 0.316 µM, first compound 1 µM) was 38.6%, the viability, T/C (second compound 0.316 µM, first compound 3.16 µM) was 39.8% and the viability, T/C (second compound 0.316 µM, first compound 10 µM) was 22.2%. For the same compound, the viability, T/C (second compound 1 µM, first compound 0.0316 µM) was 38.7%, the viability, T/C (second compound 1 µM, first compound 0.1 µM) was 35.2% and the viability, T/C (second compound 1 µM, first compound 0.316 µM) was 31%. For the same compound, the viability, T/C (second compound 1 µM, first compound 1 µM) was 31.6%, the viability, T/C (second compound 1 µM, first compound 3.16 µM) was 35.8% and the viability, T/C (second compound 1 µM, first compound 10 µM) was 19%. It also gave a viability, T/C (second compound 3.16 µM, first compound 0.0316 µM) of 35%, a viability, T/C (second compound 3.16 µM, first compound 0.1 µM) of 36.7% and a viability, T/C (second compound 3.16 µM, first compound 0.316 µM) of 35.7%. For the same compound, the viability, T/C (second compound 3.16 µM, first compound 1 µM) was 32.3%, the viability, T/C (second compound 3.16 µM, first compound 3.16 µM) was 32.4% and the viability, T/C (second compound 3.16 µM, first compound 10 µM) was 18.2%. For the same compound, the viability, T/C (second compound 10 µM, first compound 0.0316 µM) was 33.5%, the viability, T/C (second compound 10 µM, first compound 0.1 µM) was 27.9% and the viability, T/C (second compound 10 µM, first compound 0.316 µM) was 29.6%. For the same compound, the viability, T/C (second compound 10 µM, first compound 1 µM) was 39.1%, the viability, T/C (second compound 10 µM, first compound 3.16 µM) was 40.4% and the viability, T/C (second compound 10 µM, first compound 10 µM) was 13.2%.
